Results from US20240366555A1, “SELECTIVE MTORC2 INHIBITOR AND USES THEREOF” (ALIAD BIOPHARMA, priority 2021, published 2024).

Key:
[1] = target: T1, mTORC2 located in late endosome of dendritic spines (Rattus norvegicus, UniProt P42346); assay: LocaTOR2 assay-immunofluorescent staining in primary cultured cerebral neurons (mGluR-dependent mTORC2 activation); type: cell-based; conditions: FIG. 11a
T1 construct: endogenous in cells; host or cells: primary cultured cerebral neurons from SD-rat E16 embryos, transduced by lentivirus only with mCherry-FRB-AKT2 and Rab7-FKBP
Source text: By combining Loca-TOR2 assay and immunofluorescence staining, changes in mTORC2 activity located in the late endosome during the induction process of long term depression (LTD) occurring in dendritic spines of primarily cultured cerebral neurons were investigated, and the inhibitory effect of norathyriol on these changes was investigated.
Specifically, mCherry-FRB-AKT2 and Rab7-FKBP were introduced using a lentiviral vector on the primarily cultured cerebral neuron on the DIV5 day, and AP21967 was treated on the DIV17 day to induce binding of FRB and FKBP, and thereby, mCherry-FRB-AKT2 was located in the late endosome. After that, DHPG, which is an mGluR agonist inducing long-term depression, was treated. […] In addition, by measuring Ser473 phosphorylation staining of mCherry-FRB-AKT2 overlapped with PSD-95 staining, which is a protein located in dendritic spines, by immunofluorescent staining, changes in mTORC2 activity located in the late endosome in the dendritic spines can be investigated. After staining using a phospho-Ser473 AKT antibody by immunofluorescent staining, the degree of AKT Ser473 phosphorylation was quantified by counting the number of each fluorescent puncta larger than 0.4 μm or more in size in the dendrites (green). In addition, the dendritic spines were observed by staining with PSD95 antibody (yellow), and the location of mCherry-FRB-AKT2 was investigated by observing mCherry fluorescence (cherry color).
SD-rat gestational age 16-day mice (Orient Bio) were purchased and the mice were anesthetized with CO2 and then embryos were taken out. Until the forebrain was isolated and the meninges were removed, it was performed by the same method as the hippocampal culture, and when the cerebrum was isolated, the dorsal cortex or ventral cortex was cut with a bended syringe needle, and it was collected in new HBSS. The tissue isolated and collected was transferred to a 15 ml tube with a Pasteur pipette, and then in order to remove the remaining meninges and blood vessels, and the like, 2 ml HBSS and 0.25% trypsin of 2 ml were added, and it was reacted in a 37° C. shaker for 10-15 minutes. The cells were settled and the supernatant was removed leaving 1-2 ml, and then trypsin was inactivated by adding DMEM comprising the equal amount of 20% FBS. After centrifugation at 700 rpm for 15 minutes, the supernatant was discarded all and the collected tissue was released, and then Neurobasal culture medium (+glutamate) of 2 ml was added, and titrated with a pipette, and the cells were isolated by changing to a pipette with a narrow end. […] The number of cells was measured with a hemocytometer, and then the cells were seeded in a coated culture dish. […]

Arc protein expression = assay: mGluR-dependent Arc protein expression in cerebral neurons; type: cell-based; conditions: DHPG alone; FIG. 12a
Procedure: When mGluR is activated in dendritic spines of cerebral neurons, Arc protein is synthesized, and the Arc protein promotes endocytosis of an AMPA receptor to form LTD.
Specifically, DHPG was treated to cerebral neurons, which were obtained by primary culture of white mouse embryo E16 cerebral regions and differentiated for […] (DIV21), for 5 minutes or 10 minutes to activate mGluR. As an Arc antibody, Arc protein (green) and PSD95 (red), which is a marker antibody of postsynaptic density of a synapse, were under
After double immunofluorescent staining of Arc protein with an Arc antidody (green) and PSD95, a marker of postsynaptic density of synapse, with an PSD95 antibody (red), Arc expression in dendritic spines was quantified as the number of Arc+PSD95 double stained puncta per 20 μm neurite length by confocal scanning microscopic scanning.

mTORC1 = target: T2, mTORC1 (Homo sapiens, UniProt P42345); assay: In vitro mTORC1 kinase assay (GST-S6K Thr389 phosphorylation, immunoblot); type: biochemical; conditions: assay validation with dual mTOR inhibitor
T2 construct: mTORC1 was isolated by co-immunoprecipitation using Flag antibody; made in house; host or cells: HEK 293T transfected with Flag-Raptor
Procedure: In order to investigate the effect on mTORC1 activity of norathyriol, in vitro mTORC1 kinase assay was performed. After introducing Flag-Raptor into a human cell line 293T, mTORC1 was isolated by co-immunoprecipitation using Flag antibody. In addition, the activity of the isolated mTORC1 complex was evaluated by measuring phosphorylation of GST-S6K Thr389, which is a selective substrate of mTORC1, by immunoblot analysis. In the control group in which Flag-Raptor was not introduced, GST-S6K Thr389 phosphorylation was almost not measured. […] Therefore, it was judged that GST-S6K Thr389 phosphorylation measured in the in vitro mTORC1 kinase assay was generated by mTORC1. In order to evaluate the inhibitory effect of norathyriol on mTORC1 activity, norathyriol was pretreated for 15 minutes, and then in vitro mTORC1 kinase assay was carried out.
More specifically, the HEK 293T cells were cultured in a DMEM culture medium in which 10% heat inactivated FBS+1× Glutamax was added. 8×10^5 HEK 293T cells were seeded in a 100 mm culture dish, and then they were cultured for 1 day. After mixing 42 μl Lipofectamine, 21 μl plus reagent, and 21 μg Flag-Raptor plasmid DNA to 1 ml OPTI-MEM, it was shaken at a room temperature for 25 minutes to prepare a transfection DNA mixture. The transfection DNA mixture was slowly treated on the cells drop by drop, and after culturing for 5 hours, the culture medium was replaced with a new culture medium. […] The protein concentration of the cell lysate was determined with BCA protein assay kit (Thermo Fisher Scientific). […] Thr389 phosphorylation of GST-S6K1, which is a substrate of mTORC1, was measured by performing immunoblot analysis using phospho Thr389 p70 S6 kinase antibody (#9205S, Cell Signaling) and GST antibody (#A190-122A, Bethyl Laboratories). […]

mTORC2 [2] = target: T3, mTORC2 (Homo sapiens, UniProt P42345); assay: LocaTOR2 assay in A549 cells (FRB-AKT2 Ser473 phosphorylation); type: cell-based; design: endogenous in cells; host or cells: A549 (transfected only with the FKBP-recruiter and the FRB-AKT2 reporter); conditions: A549, KRas4B^C30-FKBP recruiter, AP21967; norathyriol at 30 μM and 60 μM; FIG. 9a
Source text: mTORC2 is located in the cell membrane, endosome, ER and mitochondrial membrane. mTORC2 forms an mTORC2 complex as an activated form of ras (ras-GTP) operates as a scaffold in the cell membrane, whereas it forms an mTORC2 complex as mLST8 operates as a scaffold in the endosome. By this difference, the mTORC2 inhibitory effect of norathyriol may be shown differently depending on the subcellular compartment where mTORC2 is located. In order to investigate the mTORC2 inhibitory effect of norathyriol depending on the subcellular compartment location, in vivo LocaTOR2 assay was performed (Ebner et al. (2017) J. Cell Biol. 216:343-353). After introducing FKBP-recruiter selectively located in the membrane of the subcellular compartment and FRB^T2098L-AKT2 which is an mTORC2 substrate, AP21967 was treated for 40 minutes to induce binding between the FKBP-recruiter and FRB-AKT2, and FRB-AKT2 was moved to a specific subcellular compartment. In addition, the degree of phosphorylation of Ser473 of FRB-Akt by mTORC2 located in the site thereof was investigated by immunoblot analysis.

mTORC2 [3] = target: T3, mTORC2; assay: In vitro mTORC2 kinase assay (GST-Akt Ser473 phosphorylation, immunoblot); type: biochemical; design: mTORC was isolated by co-immunoprecipitation using Flag antibody; made in house; host or cells: HEK 293T transfected with Flag-mLST8; conditions: assay validation with dual mTOR inhibitor
Procedure: After introducing Flag-mLST8 into a human cell line 293T, mTORC was isolated by co-immunoprecipitation using Flag antibody. In the in vitro mTORC2 kinase assay, the activity of the isolated mTORC2 was evaluated by measuring phosphorylation of GST-Akt Ser473, which is a selective substrate of mTORC2 by immunoblot analysis. In the control group in which Flag-mLST8 was not introduced, GST-Akt Ser473 phosphorylation was almost not measured. […] Therefore, it was judged that GST-Akt Ser473 phosphorylation measured in the in vitro mTORC2 kinase assay was generated by mTORC2. In order to evaluate the inhibitory effect of norathyriol and athyriol on mTORC2 activity, norathyriol or athyriol was pretreated for 15 minutes, and then in vitro mTORC2 kinase assay was carried out.
More specifically, the HEK 293T cells were cultured in a DMEM culture medium in which 10% heat inactivated FBS+1× Glutamax was added. 8×10^5 HEK 293T cells were seeded in a 100 mm culture dish, and then they were cultured for 1 day. After mixing 42 μl Lipofectamine, 21 μl plus reagent, and 21 μg Flag-mLST8 plasmid DNA to 1 ml OPTI-MEM, it was shaken at a room temperature for 25 minutes to prepare a transfection DNA mixture. The transfection DNA mixture was slowly treated on the cells drop by drop, and after culturing for 5 hours, the culture medium was replaced with a new culture medium. After additional culturing for 48 hours, the cells were […] with CHAPS buffer (50 mM HEPES (pH7.4), 100 mM NaCl, 2 mM EDTA, 0.3% CHAPS, 10 mM sodium pyrophosphate, 10 mM sodium β-glycerophosphate, 1 mM PMSF, 1 μg/ml leupeptin, 1 μg/ml pepstatin A, 10 nM aprotinin, 1 mM Na3VO4, 10 nM calyculin A), and centrifuged at 4° C. at 13,000 rpm for 10 minutes to obtain the supernatant and acquire cell lysate. The protein concentration of the cell lysate was determined with BCA protein assay kit (Thermo Fisher Scientific). After adding anti-Flag M2 affinity gel (50% slurry, Sigma) of 30 μl to the cell lysate of 1 mg, it was shaken at 4° C. for 3 hours. After that, affinity gel was washed with CHAPS buffer 3 times and kinase buffer (50 mM HEPES (pH7.5), 2 mM DTT, 10 mM MnCl2, 10 mM MgCl2) for washing once. After adding kinase buffer [-substrate-ATP] […] After that, kinase buffer (50 mM HEPES (pH7.5), 2 mM DTT, 10 mM MgCl2, 10 mM MnCl2, 1 mM ATP, 500 ng GST-AKT, 10 nM calyculin A) of 10 μl was added and shaken at 30° C. for 45 minutes to progress a kinase reaction. […] Ser473 phosphorylation of GST-AKT, which is a substrate of mTORC2, was measured by performing immunoblot analysis using AKT antibody (#4691, Cell signaling) and phospho Ser473 AKT antibody (#4060, Cell signalig). In order to measure the mTORC2 activity inhibitory effect by the compound, both the kinase buffer [-substrate-ATP] and the kinase buffer included the compound.

| increase of Ser473 phosphorylation of mCherry-FRB-AKT2 located in late endosome of dendritic spines ([1]; after 5 minutes of treating DHPG) | increase of Ser473 phosphorylation of mCherry-FRB-AKT2 located in late endosome of dendritic spines ([1]; after 10 minutes of treating DHPG) | GST-S6K Thr389 phosphorylation (mTORC1) | GST-Akt Ser473 phosphorylation (mTORC2 [3]) | SMILES | Ser473 phosphorylation of mCherry-FRB-AKT2 located in late endosome of dendritic spines ([1]; after 20 minutes of treating DHPG) | Arc synthesis in dendritic spines (immunofluorescent staining) (Arc protein expression) | FRB-AKT2 Ser473 phosphorylation, mTORC2 located in cell membrane (mTORC2 [2]) |
| --- | --- | --- | --- | --- | --- | --- | --- |
| 55% | 72% | – | – | NC(C(=O)O)c1cc(O)cc(O)c1 (stereo not shown) [DHPG, 3,5-dihydroxyphenylglycine] | reduced to the level of the control group | increased up to 10 minutes after treating DHPG | – |
| – | – | mostly reduced | mostly reduced | COc1ccc(-c2ccc3c(N4CCOC[C@@H]4C)nc(N4CCOC[C@@H]4C)nc3n2)cc1CO [AZD8055, reference compound] | – | – | reduced the phosphorylation of FRB-AKT2 Ser473 to a level of the control group |
